# Results taken from patent publication US20260124311A1, “POLYMER-DRUG CONJUGATES FOR STING PATHWAY ACTIVATION” (Vanderbilt University, priority 2022, published 2026).
# Read-outs that look alike come from different tables or passages of the source.
# Legend:
# [1] = E0771 tumor bearing mice, approximately 0.012 μmol diABZI/mouse, organs after 24 hours
# [2] = tested on: E0771 murine breast tumors; test: Therapeutic efficacy in E0771 murine breast tumor model; details: approximately 0.009 μmol drug/mouse every 4 days, 3 treatments
# STING [3] = biological target: T1, STING (Homo sapiens, UniProt Q86WV6, G230A/H232R/R293Q/R71H); test: THP1-Dual reporter assay (IRF-luciferase, Quanti-Luc) for activation of STING; type: cell-based; details: for STING activation / interferon production in THP-1 Dual reporter cells, in words: qualitative comparison of dose-response curves
# T1 construct: host or cells: THP1-Dual cells
# T1 sequence (Q86WV6 whole entry R71H/G230A/H232R/R293Q): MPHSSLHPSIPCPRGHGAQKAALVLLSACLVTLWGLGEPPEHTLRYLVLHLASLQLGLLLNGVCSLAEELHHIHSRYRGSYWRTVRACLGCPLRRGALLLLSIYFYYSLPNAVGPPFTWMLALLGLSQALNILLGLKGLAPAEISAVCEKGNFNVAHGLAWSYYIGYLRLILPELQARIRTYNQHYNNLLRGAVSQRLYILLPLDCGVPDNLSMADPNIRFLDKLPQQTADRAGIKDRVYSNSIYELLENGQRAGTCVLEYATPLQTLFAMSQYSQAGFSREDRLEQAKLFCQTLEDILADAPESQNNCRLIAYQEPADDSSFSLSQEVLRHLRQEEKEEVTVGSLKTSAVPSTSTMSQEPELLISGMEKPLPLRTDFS
# Description: Activation of STING. […] Cells were subjected to 10 μg/mL Blasticidin and 100 μg/mL Zeocin for continual selection after every cell passage. […] Reporter cells were seeded at 25,000 cells/well in 100 μL media and treatments were administered in 100 μL of medium.
# IRF and NF-kb pathway = test: THP-1 Dual reporter assay of IRF and NF-kb pathway activation; type: cell-based, human; details: FIG. 19A-B
# Description: Activation of STING. THP1-Dual cells (InvivoGen) were cultured in Roswell Park Memorial Institute (RPMI) 1640 Medium (Gibco) supplemented with 2 mM L-glutamine, 25 mM HEPES, 10% heat-inactivated fetal bovine serum (HI-FBS; Gibco), 100 U mL^−1, penicillin/100 μg mL^−1, streptomycin (Gibco), and 100 μg/mL Normocin. Cells were subjected to 10 μg/mL Blasticidin and 100 μg/mL Zeocin for continual selection after every cell passage. 96-well plates (REF 655180; Greiner Bio-One) were used for screening agonist activity. Reporter cells were seeded at 25,000 cells/well in 100 μL media and treatments were administered in 100 μL of medium. Results were collected 24 hours after treatment using a Quanti-Luc™ (InvivoGen) assay on cell supernatants following manufacturer's instructions. Luminescence was quantified using a plate reader (Synergy H1 Multi-Mode Microplate Reader; Biotek) after supernatants were transferred to opaque-bottom 96-well plates (REF 655073; Greiner Bio-One).
# [4] = tested on: STING knockout THP1 Dual cell line; test: STING knockout THP1 Dual cell line reporter assay; type: cell-based, human; details: FIG. 19C-D
# [5] = biological target: T2, Recombinant Mouse Cathepsin B (Mus musculus, UniProt P10605); test: Cathepsin-B release / enzyme cleavability assay with MALDI-MS; type: biochemical; details: 50 μM substrate, 0.2 μM cathepsin B
# T2 construct: purchased RND Systems
# T2 sequence (P10605 80-333 limits assumed): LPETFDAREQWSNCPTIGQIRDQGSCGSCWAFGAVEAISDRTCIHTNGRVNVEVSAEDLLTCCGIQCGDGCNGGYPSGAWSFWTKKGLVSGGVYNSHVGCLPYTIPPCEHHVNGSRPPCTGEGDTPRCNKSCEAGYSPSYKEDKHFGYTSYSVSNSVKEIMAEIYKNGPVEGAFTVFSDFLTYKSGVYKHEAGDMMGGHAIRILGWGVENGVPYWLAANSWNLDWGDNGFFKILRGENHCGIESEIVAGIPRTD
# Description: Enzyme Cleavability Studies. Recombinant Mouse Cathepsin B (RND Systems) was prepared at 50 μM in MES buffer (pH 5.0) upon opening and kept in −80° C. conditions when not in use. To activate the enzyme, Cathepsin B was diluted to 0.2 μM in MES buffer (pH 5.0) containing 1 mM EDTA and 2 mM DTT and placed at 37° C. for 15 minutes. After activation, Cathepsin B was combined with 50 μM of substrate at 37° C. for 37 hours at a total volume of 100 μL. Activity was determined by observing molecular weight shifts in the substrate using matrix assisted laser desorption and ionization mass spectrometry (MALDI-MS). 4 μL of Matrix (20 mg mL^−1 THAP and 20 mg mL^−1 CHCA in dry acetone) was combined with 1 μL of sample from the Cathepsin B activity assay and spotted on a stainless steel MALDI-MS plate (Bruker). After evaporation of matrix, three technical replicates were collected for each spot using FlexControl software (Bruker Daltonics) on a Bruker AutoFlex MALDI-TOF. The laser pulse rate was 1000 Hz and spectra were obtained with a mass window of 600-5000 m/z at high resolution (4.00 GS/s). FlexAnalysis software (Bruker Daltonics) was used to perform unbiased smoothing and obtain baseline spectra for all samples. Spectra were exported to Microsoft Excel and spectra were plotted using MATLAB.
# [6] = biological target: T3, recombinant human STING (hSTING; STING isoform 1) (Homo sapiens, UniProt Q86WV6); test: Isothermal calorimetry (ITC) binding to recombinant human STING
# T3 construct: made in house; host or cells: Escherichia coli (New England Biolabs, T7 Shuffle Express line)
# T3 sequence (Q86WV6 whole entry H232R, canonical isoform): as the sequence (Q86WV6 whole entry R71H/G230A/H232R/R293Q) above, with H71R, A230G, Q293R counted along it
# Description: hSTING Binding Studies. […] Buffer exchange was performed prior to ITC (pH 7.5: PBST, 150 mM NaCl, 3 mM EDTA, 0.05% Tween 20), using Amicon Ultra 4 mL centrifugal filters (Millipore, Etobicoke, Canada). ITC experiments were performed on a TA Instruments Affinity ITC instrument. 24 total injections were performed using the following instrument settings: cell temperature 25° C., reference power 10 μCal/second, initial delay 240 seconds, stirring speed 75 rpm, feedback mode/gain high, and injection volume 2 μL for 10 seconds spaced at 120 second intervals with a filter period of 10 seconds. hSTING was set in the cell at a concentration of 10 μM and a volume of 350 μL. […] Data were analyzed using TA Instruments NanoAnalyze Software.
# STING [7] = biological target: T4, STING (Mus musculus, UniProt Q3TBT3); test: Interferon-β sandwich ELISA on isolated primary murine splenocytes; type: cell-based
# T4 construct: from tissue; host or cells: primary splenocytes from spleens of female C57BL/6 mice
# T4 sequence (Q3TBT3 1-378): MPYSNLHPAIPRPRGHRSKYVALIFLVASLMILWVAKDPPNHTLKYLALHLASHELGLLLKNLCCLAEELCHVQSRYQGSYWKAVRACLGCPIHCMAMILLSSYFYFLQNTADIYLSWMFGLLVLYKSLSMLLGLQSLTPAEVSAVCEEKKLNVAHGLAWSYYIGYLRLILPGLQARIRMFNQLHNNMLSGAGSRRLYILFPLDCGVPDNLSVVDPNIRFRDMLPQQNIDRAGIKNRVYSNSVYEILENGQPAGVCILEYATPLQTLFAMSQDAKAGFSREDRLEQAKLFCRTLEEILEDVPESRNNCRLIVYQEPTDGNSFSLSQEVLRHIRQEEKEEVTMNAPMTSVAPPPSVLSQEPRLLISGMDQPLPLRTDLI
# Description: The activity in primary murine splenocytes, which comprises a mixture of different immune cell populations, using ELISA was used to quantify secreted interferon-β (IFN-β), a signature cytokine of STING pathway activity.
# Secretion of Interferon-β (IFN-β) ELISA. […] Cells were centrifuged and resuspended in fresh media at a concentration of 3 million cells per mL. Cells were seeded in a 96-well round bottom plate at 100 μL per well and treatments were administered in 100 μL of medium.
# B16.F10 melanoma = details: intravenous, every 3 days, 3 treatments, 0.035 umol diABZI/mouse
# Description: Tumor volume was measured until day 18 when the first tumor reached 1500 mm^3 (FIG. 9E).
# THP-1 Dual cells = test: Cellular uptake by flow cytometry at 37° C. and 4° C.; type: cell-based, human; details: FIG. 22A-B
# Text: To confirm the dependence of cellular uptake on endocytosis, a RAFT polymerization was used to synthesize a fluorescent version of 50 kDa DMA-diABZI (36) in which a small amount of azide propyl methacrylamide (2%) was co-polymerized to allow for covalent conjugation to DBCO-Sulfo-Cy5 dye, yielding compound (37), which had 2 Sulfo-Cy5 molecules per chain. […] Therefore, DMA-diABZI appears to cells via endocytosis where it can activate STING signaling within ˜2 hr.
# [8] = FIG. 5, IRF signaling at 24 hours, read-out: EC50, STING activation in THP-1 Dual reporter cell lines
# [9] = Table 2, FIG. 18A, IRF signaling in THP-1 Dual reporter cells, read-out: EC50 value
# [10] = FIG. 3A, 24 hours, read-out: estimated EC50, IRF signaling in THP1-Dual reporter cells
# [11] = FIG. 3B, 24 hours, read-out: EC50, IFN-β production in primary murine splenocytes (ELISA)
compound,measurement,setting,value
25 kDa-poly(dimethylacrylamide-co-azidethylmethacrylate)-graft-diamidobenzimidazole) [25 kDa DMA-g-V/C-diABZI (28)],organ accumulation (biodistribution),[1],"accumulation in the kidney, tumor, and liver"
same,survival,[2],longer than the control and non-polymer conjugated compound
same,treated mice with complete tumor regression,[2],approximately 20%
100 kDa-poly(dimethylacrylamide-co-azidethylmethacrylate)-graft-diamidobenzimidazole) [100 kDa DMA-g-V/C-diABZI (29)],organ accumulation (biodistribution),[1],accumulation mainly in the liver and tumor
same,survival,[2],longer than the control and non-polymer conjugated compound
same,treated mice with complete tumor regression,[2],~37.5%
"C#CCOC(=O)Nc1ccc(COC(=O)NCCCOc2cc(C(N)=O)cc3nc(NC(=O)c4cc(C)nn4CC)n(C/C=C/Cn4c(NC(=O)c5cc(C)nn5CC)nc5cc(C(N)=O)cc(OC)c54)c23)cc1 [Alkyne-PAB-diABZI (4), Alkyne-PAB-diABZI]","STING activation / interferon production in THP-1 Dual reporter cells, in words",STING [3],decrease in STING activation
"CCn1nc(C)cc1C(=O)Nc1nc2cc(C(N)=O)cc(OC)c2n1C/C=C/Cn1c(NC(=O)c2cc(C)nn2CC)nc2cc(C(N)=O)cc(OCCCNC(=O)CCCCC(=O)N3Cc4ccccc4C#Cc4ccccc43)c21 [diABZI-DBCO (8), diABZI-DBCO]","STING activation / interferon production in THP-1 Dual reporter cells, in words",STING [3],elicit STING activation
"CCSC(=S)SC(C)(C#N)CCC(=O)NCCCOc1cc(C(N)=O)cc2nc(NC(=O)c3cc(C)nn3CC)n(C/C=C/Cn3c(NC(=O)c4cc(C)nn4CC)nc4cc(C(N)=O)cc(OC)c43)c12 (centres unmarked) [diABZI-ECT (10), diABZI-ECT]",IRF and NF-kb pathway activation,IRF and NF-kb pathway,both signaling pathways are engaged
same,EC50,STING [3]; [8],3.06 nM
same,EC50,STING [3]; [9],7.21 nM
same,"STING activation / interferon production in THP-1 Dual reporter cells, in words",STING [3],significantly more potent than diABZI-amine (1)
same,"STING activation / interferon production in THP-1 Dual reporter cells, in words",STING [3]; listed as 10,nearly identical STING activation
same,IRF and NF-κβ responses in STING knockout cells,[4],lack of activity
"CCn1nc(C)cc1C(=O)Nc1nc2cc(C(N)=O)cc(OC)c2n1C/C=C/Cn1c(NC(=O)c2cc(C)nn2CC)nc2cc(C(N)=O)cc(OCCCNC(=O)CCCCCN3C(=O)C=CC3=O)c21 [diABZI-Mal (2), diABZI-Mal]",cathepsin B cleavage (molecular weight shift by MALDI-MS),[5],no change in molecular weight
same,EC50,STING [3]; [10],20.5 nM
same,Kd,[6],890 ± 547 nM
same,EC50,STING [7]; [11],~3.62 nM
"CCSC(=S)SC(C)(C#N)CCC(=O)NCCSSCCC(=O)NCCCOc1cc(C(N)=O)cc2nc(NC(=O)c3cc(C)nn3CC)n(C/C=C/Cn3c(NC(=O)c4cc(C)nn4CC)nc4cc(C(N)=O)cc(OC)c43)c12 (centres unmarked) [diABZI-SS-ECT (11), diABZI-SS-ECT]",EC50,STING [3]; [8],4.09 nM
same,"STING activation / interferon production in THP-1 Dual reporter cells, in words",STING [3],significantly more potent than diABZI-amine (1)
"CCn1nc(C)cc1C(=O)Nc1nc2cc(C(N)=O)cc(OC)c2n1C/C=C/Cn1c(NC(=O)c2cc(C)nn2CC)nc2cc(C(N)=O)cc(OCCCNC(=O)OCc3ccc(NC(=O)[C@H](CCCNC(N)=O)NC(=O)[C@@H](NC(=O)CCCCC(=O)N4Cc5ccccc5C#Cc5ccccc54)C(C)C)cc3)c21 [diABZI-V/C-DBCO (9), diABZI-V/C-DBCO]","STING activation / interferon production in THP-1 Dual reporter cells, in words",STING [3],elicit STING activation
"CCn1nc(C)cc1C(=O)Nc1nc2cc(C(N)=O)cc(OC)c2n1C/C=C/Cn1c(NC(=O)c2cc(C)nn2CC)nc2cc(C(N)=O)cc(OCCCNC(=O)OCc3ccc(NC(=O)[C@H](CCCNC(N)=O)NC(=O)[C@@H](NC(=O)CCCCCN4C(=O)C=CC4=O)C(C)C)cc3)c21 [diABZI-V/C-Mal (3), diABZI-V/C-Mal]",cathepsin B cleavage (molecular weight shift by MALDI-MS),[5],shift in molecular weight from 1400.8 Da to 801.83 Da
same,EC50,STING [3]; [10],314 nM
same,Kd,[6],207 ± 150 nM
same,EC50,STING [7]; [11],~3.38 nM
"CCn1nc(C)cc1C(=O)Nc1nc2cc(C(N)=O)cc(OC)c2n1C/C=C/Cn1c(NC(=O)c2cc(C)nn2CC)nc2cc(C(N)=O)cc(OCCCN)c21 [diABZI-amine (1), (E)-7-(3-aminopropoxy)-1-(4-(5-carbamoyl-2-(1-ethyl-3-methyl-1H-pyrazole-5-carboxamido)-7-methoxy-1H-benzo[d]imidazol-1-yl)but-2-en-1-yl)-2-(1-ethyl-3-methyl-1H-pyrazole-5-carboxamido)-1H-benzo[d]imidazole-5-carboxamide]",tumor growth inhibition,B16.F10 melanoma,inhibited tumor growth to a comparable degree
same,EC50,STING [3]; [10],60.9 nM
same,EC50,STING [3]; [9],78.6 nM
same,Kd,[6],70 ± 62 nM
same,EC50,STING [7],~2.24 nM
"C=C(C)C(=O)OCCSSCCC(=O)NCCCOc1cc(C(N)=O)cc2nc(NC(=O)c3cc(C)nn3CC)n(C/C=C/Cn3c(NC(=O)c4cc(C)nn4CC)nc4cc(C(N)=O)cc(OC)c43)c12 [diABZI-disulfide-methacrylate (15), diABZI-disulfide-methacrylate]","STING activation / interferon production in THP-1 Dual reporter cells, in words",STING [3],nearly identical STING activation
"C=C(C)C(=O)OCCCCCC(=O)NCCCOc1cc(C(N)=O)cc2nc(NC(=O)c3cc(C)nn3CC)n(C/C=C/Cn3c(NC(=O)c4cc(C)nn4CC)nc4cc(C(N)=O)cc(OC)c43)c12 [diABZI-methacrylate (14), diABZI-methacrylate]","STING activation / interferon production in THP-1 Dual reporter cells, in words",STING [3],nearly identical STING activation
diABZI(CTA)-SS-poly-DMA (50k) [50 kDa diABZI-SS-DMA (35)],"STING activation / interferon production in THP-1 Dual reporter cells, in words",STING [3],activated STING in a similar range as the stably linked constructs
diABZI-5k PEG [diABZI-5k PEG (17)],"STING activation / interferon production in THP-1 Dual reporter cells, in words",STING [3],slightly higher activity
diABZI-20k PEG [diABZI-20k PEG (18)],tumor growth inhibition,B16.F10 melanoma,inhibited tumor growth to a comparable degree
same,"STING activation / interferon production in THP-1 Dual reporter cells, in words",STING [3],slightly higher activity
diABZI-DMA-co-AzPMA-Sulfo-Cy5 [sCy5-labeled DMA-diABZI (37)],cellular uptake at 4° C. versus 37° C.,THP-1 Dual cells,nearly completely abrogated
diABZI-V/C-2k PEG [diABZI-V/C-2k PEG (19)],"STING activation / interferon production in THP-1 Dual reporter cells, in words",STING [3],active
diABZI-V/C-5k PEG [diABZI-V/C-5k PEG (20)],"STING activation / interferon production in THP-1 Dual reporter cells, in words",STING [3],active
diABZI-V/C-20k PEG [diABZI-V/C-20k PEG (21)],tumor growth inhibition,B16.F10 melanoma,inhibited tumor growth to a comparable degree
same,"STING activation / interferon production in THP-1 Dual reporter cells, in words",STING [3],active
